# Measurements: US20140128402A1, “PHARMACEUTICAL COMBINATION” (IPCA Laboratories Limited, priority 2011, published 2014)
# Tests used:
# Type in all cases: in vivo, Wistar rats
# [1] = system: STZ-induced diabetic rats; assay: Study No 2: biochemical parameters in STZ-induced diabetic rats
# [2] = system: STZ-induced diabetic rats; assay: Study No 1: blood glucose in STZ-induced diabetic rats (HCQ with sitagliptin)
# Experimental: (§1) In this experiment 48 Wistar rats weighing 130-150 g of either sex were divided randomly into 8 groups consisting of 6 rats each. The study drugs suspended in vehicle [0.1% w/v suspension of Tween 80 and carboxymethylcellulose (CMC) in water] were administered for orally for 21 days. Group 1 (normal vehicle control) consisted of normal rats that neither received streptozotocin nor any test drug; Group 2 served as streptozotocin induced diabetic control (Diabetes was induced in rats by single administration of streptozotocin (60 mg/kg/i.p) dissolved in 0.1 M-citrate buffer, pH 4.5). Forty-eight hours later, blood samples were collected and glucose levels were determined to confirm the development of diabetes.
# Blood glucose level was measured in normal and experimental rats at 1st, 7th, 14th and 21st day of administration. For other biochemical parameters i.e. Insulin, HbA1c, Triglycerides, Total Cholesterol, HDL, SGOT, SGPT, Total Protein, Albumin, Creatinine and Urea Blood samples were collected 1 h after the last dose administration from 18 h fasted rats through the retro-orbital plexus under chloroform anesthesia and analyzed using autoanalyzer (Microlab 2000). Other parameters like body weight, food intake and water intake were evaluated weekly till day 21st.
# [3] = system: STZ induced diabetic rats; assay: Study No 2: blood glucose in STZ induced diabetic rats (HCQ with vildagliptin and saxagliptin); conditions: for Plasma glucose concentration: oral
# Experimental: In this experiment 96 Wistar rats weighing 150-200 g of either sex were divided randomly into 16 groups consisting of 6 rats each. The study drugs were dissolved in water/suspended in vehicle [0.1% w/v suspension of Tween 80 and carboxymethylcellulose (CMC) in water] and administered orally for 28 days. Group 1 (normal vehicle control) consisted of normal rats that neither received Streptozotocin (STZ) nor any test drug; Group 2 served as Streptozotocin induced diabetic control [Diabetes was induced in rats by single administration of Streptozotocin (55 mg/kg/i.p.) dissolved in 0.1 M-citrate buffer, pH 4.5]. Forty-eight hours later, blood samples were collected and glucose levels were determined to confirm the development of diabetes. Only animals showing hyperglycaemia (blood glucose levels>250 mg/dl) were considered as diabetic and received vehicle orally; Group 3 was diabetic rats treated with hydroxychloroquine (HCQ) (22.5 mg/kg); Group 4 was diabetic rats treated with HCQ (45 mg/kg), Group 5 was diabetic rats treated with vildagliptin (VG) 6 mg/kg; Group 6 was diabetic rats treated with VG 12 mg/kg; Group 7 was diabetic rats treated with HCQ 22.5 mg/kg+VG 12 mg/kg and Group 8 was diabetic rats treated with combination of HCQ 45 mg/kg and VG 6 mg/kg; Group 9 was diabetic rats treated with saxagliptin (SG) 0.3 mg/kg; Group 10 was diabetic rats treated with Saxagliptin (SG) 0.6 mg/kg; Group 11 was diabetic rats treated with combination of HCQ 45 mg/kg+SG 0.3 mg/kg; Group 12 was diabetic rats treated with combination of HCQ 22.5 mg/kg+SG 0.6 mg/kg; Group 13 was diabetic rats treated with combination of HCQ 22.5 mg/kg and VG 6 mg/kg; Group 14 was diabetic rats treated with combination of HCQ 45 mg/kg and VG 12 mg/kg; Group 15 was diabetic rats treated with combination of HCQ 22.5 mg/kg+SG 0.3 mg/kg; Group 16 was diabetic rats treated with combination of HCQ 45 mg/kg+SG 0.6 mg/kg.
# Blood glucose level was measured in normal and experimental rats at 0, 7th, 14th, 21st and 28th day of administration.
# [4] = system: STZ-induced diabetic rats; assay: Study No 1: body weight, food intake and water intake in STZ-induced diabetic rats; conditions: for AVERAGE WATER INTAKE: oral
# Experimental: as §1, with “diabetes. […] Group 3 was diabetic rats treated with dose equivalent to human therapeutic dose of sitagliptin (STG) (11 mg/kg); Group 4 was diabetic rats treated with dose equivalent to human therapeutic dose of Hydroxychloroquine (HCQ) (46 mg/kg), Group 5 was diabetic rats treated with combination of HCQ 46 mg/kg and STG11 mg/kg; […] For other biochemical parameters i.e. […] Other parameters like body weight, food intake and water intake were evaluated weekly till day 21st.” for “diabetes.”
# [5] = system: STZ-induced diabetic rats; assay: Study No 1: biochemical parameters in STZ-induced diabetic rats; conditions: after 21 days
# Experimental: as §1, with “diabetes. […] Group 3 was diabetic rats treated with dose equivalent to human therapeutic dose of sitagliptin (STG) (11 mg/kg); Group 4 was diabetic rats treated with dose equivalent to human therapeutic dose of Hydroxychloroquine (HCQ) (46 mg/kg), Group 5 was diabetic rats treated with combination of HCQ 46 mg/kg and STG11 mg/kg; […] For other biochemical parameters i.e. […] Other parameters like body weight, food intake and water intake were evaluated weekly till day 21st.” for “diabetes.”
# [6] = after 28 days, HCQ 22.5, VG 6, SG 0.3 mg/kg alone, HCQ+VG 22.5+6, HCQ+SG 22.5+0.3 mg/kg/day, oral
# [7] = after 28 days, HCQ 45, VG 12, SG 0.6 mg/kg alone, HCQ+VG 45+12, HCQ+SG 45+0.6 mg/kg/day, oral
# [8] = monotherapies, all the tested dose levels except HCQ (22.5 mg/kg), p≦0.05
# [9] = subtherapeutic dose: STG 5.5, HCQ 23, STG+HCQ 5.5+23 mg/kg/day oral
# [10] = therapeutic dose: STG 11, HCQ 46, STG+HCQ 11+46 mg/kg/day oral
smiles,measurement,setting,value
"CCN(CCO)CCCC(C)Nc1ccnc2cc(Cl)ccc12 (stereo not drawn) [HCQ, Hydroxychloroquine]",HbA1c,[1]; [6],11.28 ± 1.08 %
same,Total Protein,[1]; [6],6.16 ± 0.41 gm/dl
same,Urea,[1]; [6],24.68 ± 1.96 mg/dL
same,Creatinine,[1]; [7],1.75 ± 0.29 mg/dL
same,HbA1c,[1]; [7],11.07 ± 1.22 %
same,Total Protein,[1]; [7],6.35 ± 0.79 gm/dl
same,Urea,[1]; [7],23.37 ± 2.86 mg/dL
same,HbA1c levels as compared to diabetic control,"[1]; all tested doses, 28 days, p≦0.05",significantly (p≦0.05) reduced
same,total protein level as compared to the diabetic control group,"[1]; monotherapies at all doses, 28 days, p≦0.05",significant rise
same,creatinine levels as compared to diabetic control group,[1]; [8],significant reduction
same,urea levels as compared to diabetic control group,[1]; [8],significant reduction
same,Plasma glucose concentration,"[2]; 1st day, subtherapeutic dose: STG 5.5, HCQ 23, STG+HCQ 5.5+23 mg/kg oral",253.33 ± 24.86 mg/dL
same,Plasma glucose concentration,"[2]; 1st day, therapeutic dose: STG 11, HCQ 46, STG+HCQ 11+46 mg/kg oral",267.83 ± 10.53 mg/dL
same,Plasma glucose concentration,"[2]; 7th day, subtherapeutic dose: STG 5.5, HCQ 23, STG+HCQ 5.5+23 mg/kg oral",248.67 ± 24.63 mg/dL
same,Plasma glucose concentration,"[2]; 7th day, therapeutic dose: STG 11, HCQ 46, STG+HCQ 11+46 mg/kg oral",243.83 ± 10.78 mg/dL
same,Plasma glucose concentration,"[2]; 14th day, subtherapeutic dose: STG 5.5, HCQ 23, STG+HCQ 5.5+23 mg/kg oral",241.33 ± 24.73 mg/dL
same,Plasma glucose concentration,"[2]; 14th day, therapeutic dose: STG 11, HCQ 46, STG+HCQ 11+46 mg/kg oral, 46 mg/kg",230.00 ± 12.96 mg/dL
same,Plasma glucose concentration,"[2]; 14th day, therapeutic dose: STG 11, HCQ 46, STG+HCQ 11+46 mg/kg oral, listed as hydroxychloroquine, 46 mg/kg",significant improvement
same,Plasma glucose concentration,"[2]; 21st day, subtherapeutic dose: STG 5.5, HCQ 23, STG+HCQ 5.5+23 mg/kg oral",232.00 ± 19.92 mg/dL
same,Plasma glucose concentration,"[2]; 21st day, therapeutic dose: STG 11, HCQ 46, STG+HCQ 11+46 mg/kg oral",207.67 ± 7.53 mg/dL
same,Plasma glucose concentration,"[3]; Day 0, HCQ 22.5, VG 6, SG 0.3 mg/kg alone, HCQ+VG 22.5+6, HCQ+SG 22.5+0.3 mg/kg",292.17 ± 26.12 mg/dL
same,Plasma glucose concentration,"[3]; Day 0, HCQ 45, VG 12, SG 0.6 mg/kg alone, HCQ+VG 45+12, HCQ+SG 45+0.6 mg/kg",305.67 ± 27.14 mg/dL
same,Plasma glucose concentration,"[3]; Day 7, HCQ 22.5, VG 6, SG 0.3 mg/kg alone, HCQ+VG 22.5+6, HCQ+SG 22.5+0.3 mg/kg",278 ± 22.59 mg/dL
same,Plasma glucose concentration,"[3]; Day 7, HCQ 45, VG 12, SG 0.6 mg/kg alone, HCQ+VG 45+12, HCQ+SG 45+0.6 mg/kg",265.5 ± 8.87 mg/dL
same,Plasma glucose concentration,"[3]; Day 14, HCQ 22.5, VG 6, SG 0.3 mg/kg alone, HCQ+VG 22.5+6, HCQ+SG 22.5+0.3 mg/kg",269.33 ± 11.45 mg/dL
same,Plasma glucose concentration,"[3]; Day 14, HCQ 45, VG 12, SG 0.6 mg/kg alone, HCQ+VG 45+12, HCQ+SG 45+0.6 mg/kg",266.5 ± 15.86 mg/dL
same,Plasma glucose concentration,"[3]; Day 21, HCQ 22.5, VG 6, SG 0.3 mg/kg alone, HCQ+VG 22.5+6, HCQ+SG 22.5+0.3 mg/kg",266.67 ± 24.68 mg/dL
same,Plasma glucose concentration,"[3]; Day 21, HCQ 45, VG 12, SG 0.6 mg/kg alone, HCQ+VG 45+12, HCQ+SG 45+0.6 mg/kg",265.83 ± 9.22 mg/dL
same,Plasma glucose concentration,"[3]; Day 28, HCQ 22.5, VG 6, SG 0.3 mg/kg alone, HCQ+VG 22.5+6, HCQ+SG 22.5+0.3 mg/kg",266.5 ± 11.33 mg/dL
same,Plasma glucose concentration,"[3]; Day 28, HCQ 45, VG 12, SG 0.6 mg/kg alone, HCQ+VG 45+12, HCQ+SG 45+0.6 mg/kg",244.5 ± 18.1 mg/dL
same,blood glucose levels as compared to diabetic control group,"[3]; alone at therapeutic equivalent doses, day 28",significant improvement
same,AVERAGE WATER INTAKE,"[4]; Day 1, Sub-The (subtherapeutic dose)",31.67 mL
same,AVERAGE WATER INTAKE,"[4]; Day 1, The (therapeutic dose)",30.00 mL
same,Body Weight,"[4]; Day 1, subtherapeutic dose: STG 5.5, HCQ 23, STG+HCQ 5.5+23 mg/kg oral",133.33 ± 17.67 g
same,AVERAGE FOOD INTAKE,"[4]; Day 1, subtherapeutic dose: STG 5.5, HCQ 23, combination 5.5+23 mg/kg oral",12.17 g
same,Body Weight,"[4]; Day 1, therapeutic dose: STG 11, HCQ 46, STG+HCQ 11+46 mg/kg oral",140.33 ± 14.60 g
same,AVERAGE FOOD INTAKE,"[4]; Day 1, therapeutic dose: STG 11, HCQ 46, combination 11+46 mg/kg oral",11.50 g
same,AVERAGE WATER INTAKE,"[4]; Day 7, Sub-The (subtherapeutic dose)",32.17 mL
same,AVERAGE WATER INTAKE,"[4]; Day 7, The (therapeutic dose)",29.17 mL
same,Body Weight,"[4]; Day 7, subtherapeutic dose: STG 5.5, HCQ 23, STG+HCQ 5.5+23 mg/kg oral",133.67 ± 16.61 g
same,AVERAGE FOOD INTAKE,"[4]; Day 7, subtherapeutic dose: STG 5.5, HCQ 23, combination 5.5+23 mg/kg oral",11.50 g
same,Body Weight,"[4]; Day 7, therapeutic dose: STG 11, HCQ 46, STG+HCQ 11+46 mg/kg oral",141.17 ± 14.26 g
same,AVERAGE FOOD INTAKE,"[4]; Day 7, therapeutic dose: STG 11, HCQ 46, combination 11+46 mg/kg oral",10.33 g
same,AVERAGE WATER INTAKE,"[4]; Day 14, Sub-The (subtherapeutic dose)",32.17 mL
same,AVERAGE WATER INTAKE,"[4]; Day 14, The (therapeutic dose)",28.33 mL
same,Body Weight,"[4]; Day 14, subtherapeutic dose: STG 5.5, HCQ 23, STG+HCQ 5.5+23 mg/kg oral",135.17 ± 16.29 g
same,AVERAGE FOOD INTAKE,"[4]; Day 14, subtherapeutic dose: STG 5.5, HCQ 23, combination 5.5+23 mg/kg oral",11.83 g
same,Body Weight,"[4]; Day 14, therapeutic dose: STG 11, HCQ 46, STG+HCQ 11+46 mg/kg oral",142.67 ± 13.52 g
same,AVERAGE FOOD INTAKE,"[4]; Day 14, therapeutic dose: STG 11, HCQ 46, combination 11+46 mg/kg oral",8.67 g
same,AVERAGE WATER INTAKE,"[4]; Day 21, Sub-The (subtherapeutic dose)",31.83 mL
same,AVERAGE WATER INTAKE,"[4]; Day 21, The (therapeutic dose)",28.83 mL
same,Body Weight,"[4]; Day 21, subtherapeutic dose: STG 5.5, HCQ 23, STG+HCQ 5.5+23 mg/kg oral",137.00 ± 15.75 g
same,AVERAGE FOOD INTAKE,"[4]; Day 21, subtherapeutic dose: STG 5.5, HCQ 23, combination 5.5+23 mg/kg oral",11.67 g
same,AVERAGE FOOD INTAKE,"[4]; Day 21, therapeutic dose: STG 11, HCQ 46, combination 11+46 mg/kg oral",8.33 g
same,Creatinine,[5]; [9],1.79
same,HDL-C,[5]; [9],24.99 mg/dL
same,HbA1c,[5]; [9],5.30
same,Insulin (serum),[5]; [9],4.71
same,SGOT,[5]; [9],57.29
same,SGPT,[5]; [9],58.12
same,TC,[5]; [9],166.69 mg/dL
same,TG,[5]; [9],130.65 mg/dL
same,Total Protein,[5]; [9],4.03 g/dL
same,Urea,[5]; [9],46.38 mg/dL
same,Albumin,[5]; [10],2.33 g/dL
same,Creatinine,[5]; [10],1.72
same,HDL-C,[5]; [10],25.07 mg/dL
same,HbA1c,[5]; [10],4.91
same,Insulin (serum),[5]; [10],5.97
same,SGOT,[5]; [10],53.77
same,SGPT,[5]; [10],55.94
same,TC,[5]; [10],158.57 mg/dL
same,TG,[5]; [10],124.68 mg/dL
same,Total Protein,[5]; [10],4.12 g/dL
same,Urea,[5]; [10],43.85 mg/dL
